Test results taken from publication PMC4159592 (Chembiochem, 2014).

Target: CYP126 (Mycobacterium tuberculosis, UniProt P9WPN9)
Test: biochemical
Type: binding

CYP126, sequence (P9WPN9 whole entry): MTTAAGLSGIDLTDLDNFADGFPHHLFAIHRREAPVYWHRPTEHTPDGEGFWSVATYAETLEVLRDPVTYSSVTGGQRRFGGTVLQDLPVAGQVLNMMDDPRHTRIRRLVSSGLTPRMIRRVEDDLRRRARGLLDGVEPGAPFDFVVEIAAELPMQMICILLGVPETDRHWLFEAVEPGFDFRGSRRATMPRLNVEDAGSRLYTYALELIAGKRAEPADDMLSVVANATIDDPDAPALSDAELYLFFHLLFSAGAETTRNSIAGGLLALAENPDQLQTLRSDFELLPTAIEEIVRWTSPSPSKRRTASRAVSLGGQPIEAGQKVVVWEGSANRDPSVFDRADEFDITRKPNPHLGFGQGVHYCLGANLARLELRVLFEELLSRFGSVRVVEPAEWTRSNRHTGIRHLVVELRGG

`Oc1c(Cl)c(Cl)c(Cl)c(Cl)c1Cl` [TB23, pentachlorophenol] was tested, and the Kd was 150 µM.
